Reference: US20070128217A1 (priority 2003, published 2007)

Key:
[1] = system: rabbit serum obtained by immunizing a rabbit with the SARS-CoV strain Frankfurt 1; assay type: binding; set-up: Binding of a rabbit serum to linear peptides / Binding of a rabbit serum to looped peptides / Rabbit serum linear peptides / Rabbit serum looped peptides / Binding of a rabbit serum to linear peptides of protein N of SARS-CoV Urbani (Rabbit serum linear peptides) / Binding of a rabbit serum to looped/cyclic peptides of protein N of SARS-CoV Urbani (Rabbit serum looped peptides): unit not given here
[2] = system: antibodies in sera from SARS patients (sera 1a, 1b, 2, 6, 37, 62, London, SARS-yellow, SARS-green); assay type: binding, human; set-up: Binding of serum 6 to linear peptides of protein X1 of SARS-CoV Urbani / Binding of serum 37 to linear peptides of protein X1 of SARS-CoV Urbani / Binding of serum 6 to looped/cyclic peptide (PEPSCAN-ELISA) / Binding of serum 37 to looped/cyclic peptide (PEPSCAN-ELISA) / Binding of serum 37 to looped/cyclic peptides of protein X1 of SARS-CoV Urbani / Binding of serum 6 to linear peptides of protein X2 / Binding of serum 37 to linear peptides of protein X2 / Binding of serum 37 to looped/cyclic peptides of protein X2 of SARS-CoV Urbani / Binding of serum 6 to linear peptides of protein M of SARS-CoV Urbani / Binding of serum 37 to linear peptides of protein M of SARS-CoV Urbani / Binding of serum 6 to looped/cyclic peptides of protein M of SARS-CoV Urbani / Binding of serum 37 to looped/cyclic peptides of protein M of SARS-CoV Urbani / Binding of serum 6 to linear peptides of protein X3 of SARS-CoV Urbani / Binding of serum 37 to linear peptides of protein X3 of SARS-CoV Urbani / Binding of serum 37 to looped/cyclic peptides of protein X3 of SARS-CoV Urbani / Binding of serum 6 to linear peptides of protein X4 of SARS-CoV Urbani / Binding of serum 37 to linear peptides of protein X4 of SARS-CoV Urbani / Binding of serum 37 to looped/cyclic peptides of protein X4 of SARS-CoV Urbani / Binding of serum 6 to linear peptides of protein X5 of SARS-CoV Urbani / Binding of serum 37 to linear peptides of protein X5 of SARS-CoV Urbani / Binding of serum 37 to looped/cyclic peptides of protein X5 of SARS-CoV Urbani / Binding of serum 6 to linear peptides of protein N of SARS-CoV Urbani / Binding of serum 37 to linear peptides of protein N of SARS-CoV Urbani / Binding of serum 6 to linear peptide (PEPSCAN-ELISA) / Binding of serum 1a to looped/cyclic peptides of protein N of SARS-CoV Urbani / Binding of serum 1b to looped/cyclic peptides of protein N of SARS-CoV Urbani / Binding of serum 2 to looped/cyclic peptides of protein N of SARS-CoV Urbani / Binding of serum 6 to looped/cyclic peptides of protein N of SARS-CoV Urbani / Binding of serum 37 to looped/cyclic peptides of protein N of SARS-CoV Urbani / Binding of serum 62 to looped/cyclic peptides of protein N of SARS-CoV Urbani / Binding of serum London to looped/cyclic peptides of protein N of SARS-CoV Urbani / Binding of serum SARS-green to looped/cyclic peptides of protein N of SARS-CoV Urbani: unit not given here
[3] = system: control sera (pooled serum of ten healthy LUMC hospital workers; commercial negative donor pooled serum from the Dutch bloodbank); assay type: binding, human; set-up: Binding of Control serum LUMC to linear peptides / Binding of Control serum Blood-bank to linear peptides / Binding of Control serum LUMC to looped peptides / Binding of Control Serum Blood-Bank to Looped peptides / Binding of Control serum LUMC to linear peptides of the protein M of SARS-CoV Urbani / Binding of Control serum Blood-bank to linear peptides of the protein M of SARS-CoV Urbani / Binding of Control serum LUMC to looped peptides of the protein M of SARS-CoV Urbani / Binding of Control Serum Blood-Bank to Looped peptides of the protein M of SARS-CoV Urbani: unit not given here

CADGTRHTYQLRARS
recognized: Recognition of the peptide by the rabbit serum [1]
0.6: Binding of serum 1a to linear peptides of protein X4 of SARS-CoV Urbani [2] | Binding of serum 6 to linear peptides of protein X4 of SARS-CoV Urbani [2] | Binding of serum 6 to looped/cyclic peptides of protein X4 of SARS-CoV Urbani [2] | Binding of serum 62 to looped/cyclic peptides of protein X4 of SARS-CoV Urbani [2] | Binding of serum SARS-green to linear peptides of protein X4 of SARS-CoV Urbani [2] | Binding of serum SARS-yellow to looped/cyclic peptides of protein X4 of SARS-CoV Urbani [2] | Binding of Control serum LUMC to looped peptides [3]
0.7: Binding of serum 1a to looped/cyclic peptides of protein X4 of SARS-CoV Urbani [2] | Binding of serum 37 to linear peptides of protein X4 of SARS-CoV Urbani [2] | Binding of serum 37 to looped/cyclic peptides of protein X4 of SARS-CoV Urbani [2] | Binding of serum 62 to linear peptides of protein X4 of SARS-CoV Urbani [2] | Binding of serum SARS-yellow to linear peptides of protein X4 of SARS-CoV Urbani [2] | Binding of Control serum Blood-bank to linear peptides [3]
0.3: Binding of serum London to looped/cyclic peptides of protein X4 of SARS-CoV Urbani [2]
0.8: Binding of serum 2 to looped/cyclic peptides of protein X4 of SARS-CoV Urbani [2] | Binding of serum London to linear peptides of protein X4 of SARS-CoV Urbani [2]
0.5: Binding of serum 1b to linear peptides of protein X4 of SARS-CoV Urbani [2] | Binding of serum 2 to linear peptides of protein X4 of SARS-CoV Urbani [2] | Binding of Control Serum Blood-Bank to Looped peptides [3] | Binding of Control serum LUMC to linear peptides [3]
0.0: Binding of serum SARS-green to looped/cyclic peptides of protein X4 of SARS-CoV Urbani [2]
0.4: Binding of serum 1b to looped/cyclic peptides of protein X4 of SARS-CoV Urbani [2]

CDIKDLPKEITVATS
0.0: Binding of serum SARS-yellow to linear peptides of protein M of SARS-CoV Urbani [2]
0.4: Rabbit serum linear peptides [1] | Binding of serum SARS-green to looped/cyclic peptides of protein M of SARS-CoV Urbani [2] | Binding of Control serum Blood-bank to linear peptides of the protein M of SARS-CoV Urbani [3]
0.5: Binding of serum 6 to looped/cyclic peptides of protein M of SARS-CoV Urbani [2] | Binding of serum 37 to linear peptides of protein M of SARS-CoV Urbani [2]
0.6: Rabbit serum looped peptides [1] | Binding of serum 1a to linear peptides of protein M of SARS-CoV Urbani [2] | Binding of serum 1a to looped/cyclic peptides of protein M of SARS-CoV Urbani [2] | Binding of serum 2 to looped/cyclic peptides of protein M of SARS-CoV Urbani [2] | Binding of serum 37 to looped/cyclic peptides of protein M of SARS-CoV Urbani [2] | Binding of serum 62 to looped/cyclic peptides of protein M of SARS-CoV Urbani [2] | Binding of serum SARS-yellow to looped/cyclic peptides of protein M of SARS-CoV Urbani [2] | Binding of Control Serum Blood-Bank to Looped peptides of the protein M of SARS-CoV Urbani [3]
0.2: Binding of serum London to looped/cyclic peptides of protein M of SARS-CoV Urbani [2] | Binding of serum SARS-green to linear peptides of protein M of SARS-CoV Urbani [2] | Binding of Control serum LUMC to linear peptides of the protein M of SARS-CoV Urbani [3]
0.7: Binding of serum 62 to linear peptides of protein M of SARS-CoV Urbani [2] | Binding of Control serum LUMC to looped peptides of the protein M of SARS-CoV Urbani [3]
0.3: Binding of serum 1b to linear peptides of protein M of SARS-CoV Urbani [2] | Binding of serum 1b to looped/cyclic peptides of protein M of SARS-CoV Urbani [2] | Binding of serum 2 to linear peptides of protein M of SARS-CoV Urbani [2] | Binding of serum 6 to linear peptides of protein M of SARS-CoV Urbani [2] | Binding of serum London to linear peptides of protein M of SARS-CoV Urbani [2]

CFVLAAVYRINWVTG
0.2: Rabbit serum linear peptides [1] | Binding of serum London to looped/cyclic peptides of protein M of SARS-CoV Urbani [2] | Binding of serum SARS-yellow to linear peptides of protein M of SARS-CoV Urbani [2]
0.5: Binding of serum 2 to looped/cyclic peptides of protein M of SARS-CoV Urbani [2] | Binding of serum SARS-green to linear peptides of protein M of SARS-CoV Urbani [2]
0.6: Binding of serum 1a to looped/cyclic peptides of protein M of SARS-CoV Urbani [2] | Binding of serum 1b to linear peptides of protein M of SARS-CoV Urbani [2] | Binding of serum 1b to looped/cyclic peptides of protein M of SARS-CoV Urbani [2] | Binding of serum 2 to linear peptides of protein M of SARS-CoV Urbani [2] | Binding of serum 6 to linear peptides of protein M of SARS-CoV Urbani [2] | Binding of serum 37 to looped/cyclic peptides of protein M of SARS-CoV Urbani [2] | Binding of Control Serum Blood-Bank to Looped peptides of the protein M of SARS-CoV Urbani [3] | Binding of Control serum LUMC to linear peptides of the protein M of SARS-CoV Urbani [3]
0.8: Binding of serum 1a to linear peptides of protein M of SARS-CoV Urbani [2] | Binding of serum 6 to looped/cyclic peptides of protein M of SARS-CoV Urbani [2] | Binding of Control serum LUMC to looped peptides of the protein M of SARS-CoV Urbani [3]
0.3: Binding of serum SARS-green to looped/cyclic peptides of protein M of SARS-CoV Urbani [2]
0.7: Binding of serum 62 to looped/cyclic peptides of protein M of SARS-CoV Urbani [2] | Binding of Control serum Blood-bank to linear peptides of the protein M of SARS-CoV Urbani [3]
0.4: Binding of serum 37 to linear peptides of protein M of SARS-CoV Urbani [2] | Binding of serum 62 to linear peptides of protein M of SARS-CoV Urbani [2] | Binding of serum London to linear peptides of protein M of SARS-CoV Urbani [2] | Binding of serum SARS-yellow to looped/cyclic peptides of protein M of SARS-CoV Urbani [2]
0.1: Rabbit serum looped peptides [1]
